{
  "source": "patent US12691099B2",
  "about": "“Oral formulations of Edaravone and method of manufacturing thereof” (BDR PHARMACEUTICALS INTERNATIONAL PRIVATE LIMITED, priority 2019, dated 2026)",
  "origin": "cited, not measured here",
  "key": {"[1]": {"details": "poor solubility in water and lower lipid permeability"}},
  "data": [
    {"smiles": "CC1=NN(c2ccccc2)C(=O)C1", "note": "[Edaravone, 3-methyl-1-phenyl-2-pyrazolin-5-one]", "values": [
      {"measurement": "solubility", "value": 25, "unit": "µg/mL"},
      {"measurement": "BCS class", "setting": "[1]", "value": "Class IV"}
    ]}
  ]
}
